Assay results: US6159501A, “Modified release multiple-units dosage composition for release of opioid compounds” (Nycomed Danmark A/S, priority 1996, dated 2000)

How the values were obtained:
[1] = cited from earlier work
[2] = Test 3 (PDMO-018): adverse events
Method: Volunteers were asked to report any changes in normal health to the investigator. The investigator recorded in the CRFs the event, date and time for onset and cessation, frequency, severity, outcome, causality, classification and any action taken.
Further a urine sample was screened for drug abuse and pregnancy test was performed for female volunteers. If negative drugs of abuse and pregnancy test the volunteers were challenged in the first period only with a direct i.v. injection of about 0.5 ml naloxone 0.4 mg/ml (Narcan®).

For `CN1CC[C@]23c4c5ccc(O)c4O[C@H]2[C@@H](O[C@@H]2O[C@H](C(=O)O)[C@@H](O)[C@H](O)[C@H]2O)C=C[C@H]3[C@H]1C5` [morphine-6-glucuronide], the “half-life, comparison” value ([1]; in vivo) is listed as “longer half-life”.

In the case of `CN1CC[C@]23c4c5ccc(O)c4O[C@H]2[C@@H](O)C=C[C@H]3[C@H]1C5` [morphine], the “average duration of action for the first single dose” value ([1]; 10 mg of oral, i.m. or s.c. morphine) is listed as 4 to 5 h.

For `O=C1CC[C@@]2(O)[C@H]3Cc4ccc(O)c5c4[C@@]2(CCN3CC2CC2)[C@H]1O5` [naltrexone], the “adverse events (number)” value [2] was 13 AEs.
